{"source": "patent US6897019B1", "about": "“Methods for treating and preventing insulin resistance and related disorders” (priority 1998, dated 2005)", "key": {"JNK-1 [1]": {"test_system": "JNK-1", "test": "Western blot of phosphorylated JNK-1 in 3T3-L1 cells", "format": "cell-based, Mouse", "conditions": "3 days 17 μM PGJ2, then 15 minutes 10 ng/ml TNF-α", "method": "(§1) 3T3-L1 cells were pretreated for 3 days with 17 μM of PGJ2 and then for 15 minutes with 10 ng/ml TNF-α. The amount of phosphorylated (thus activated) JNK-1, ERK1/2, and p38 was determined by Western blot using an antibody specifically recognizing phosphorylated forms of the proteins. As a control, the total amount of JNK-1, ERK1/2 and p38 protein was determined by Western blot using an antibody recognizing the phosphorylated and non phosphorylated forms of the protein. The activity of ERK1/2 and JNK kinases was also determined in a kinase assay using MBP and a portion of c-jun, respectively, as substrate."}, "3T3-L1 adipocytes [2]": {"test_system": "3T3-L1 adipocytes", "test": "Lipolysis (glycerol in culture medium) of 3T3-L1 adipocytes with or without TNF-α", "format": "cell-based, Mouse", "conditions": "for increase in glycerol accumulation versus untreated controls: last 24 hours of 5-day treatment", "method": "3T3-L1 adipocytes used in this example were obtained from 3T3-L1 fibroblasts as follows. 3T3-L1 fibroblasts (ATCC Deposit NO. CL-173, described in U.S. Pat. No. 4,003,789) were cultured in Dulbecco's Modified Eagle's Medium (DMEM) containing 10% bovine calf serum, and induced to differentiate into adipocytes using standard protocols, as described, e.g., in Kohanski et al. (1996) J. Biol. Chem. 261:12272. Adipocytes were used 10-15 days after the differentiation protocol was initiated.\nDifferentiated 3T3-L1 adipocytes cultured in 12 well plates were incubated overnight in DMEM+0.5% BSA in the absence of serum. The following morning, the cells were incubated in the presence or absence of 2 mM or 20 mM sodium salicylate (NaSal) and treated with recombinant murine TNF-α (m TNF-α; Genzyme; Cambridge, Mass.) with or without 17 μM 15-deoxy-^12,14-PGJ2 (“PGJ2”; Cayman Chemical; Ann Arbor, Mich.) or 10 μM BRL 49653 (“BRL”; Smith Kine Beecham (Hamish Ross) (King of Prussia, Pa.)) for 24 hours. The glycerol content in the culture medium was determined using a colorimetric assay (GPO-Trinder, Sigma, St Louis, […].). Protein content was determined using the BCA (bicinchonic acid) protein assay (Pierce, Rockford, Ill.). The results are indicated as nmol glycerol per mg protein.\nAccordingly, 3T3-L1 adipocytes were treated with BRL at 10 μM, 1 μM or 1 nM and TNF-α as described above, and the amount of glycerol was determined after 24 hours.\n3T3-L1 adipocytes were treated with TNF-α (2 or 10 ng/ml), TNF-α plus BRL at 10 μM, TNF-α plus PGJ2 at 15 μM, or BRL or PGJ2 alone for 5 days. The media was replaced everyday and collected on day 5 to measure accumulation of glycerol.\n[…] The glycerol content in the culture medium was determined as described above.\n3T3-L1 adipocytes prepared as described in Example 1 were preincubated with various amounts (0-50 μM) of the p38 kinase inhibitor SB203580 and then treated with 10 ng/ml TNF-α for 24 hours and the amount of glycerol in the culture medium determined as described above. […]"}, "JNK-1 [3]": {"test_system": "JNK-1", "test": "JNK-1 kinase assay (c-jun substrate) on extracts of treated 3T3-L1 adipocytes", "format": "cell-based, Mouse", "conditions": "3 days 17 μM PGJ2, then 15 minutes 10 ng/ml TNF-α", "method": "3T3-L1 adipocytes were pretreated for 3 hours with or without 20 mM NaSal, with or without 100 μM MAP kinase kinase (MEK) inhibitor PD98059 (Biomol; Cat. No. EI-360) and then for 15 minutes with 10 ng/ml mTNF-α. JNK-1 kinase assays were then performed with extracts of each of these cell cultures on an N-terminal portion of c-jun, as described in Derjarde et al. (1994) Cell 76: 1025.\n(§2) 3T3-L1 adipocytes prepared as described in Example 1 were pretreated for 3 hours with or without 20 mM NaSal or 100 μM PD98059 and then treated for 15 minutes with or without 10 ng/ml mTNF-α and with or without 10 μM BRL. Cell extracts were then prepared and used in ERK 1/2 kinase and JNK-1 kinase assays, as described above.\nas §1"}, "ERK1/2 [4]": {"test_system": "ERK1/2", "test": "ERK 1/2 kinase assay (MBP substrate) on extracts of treated 3T3-L1 adipocytes", "format": "cell-based, Mouse", "method": "In this example, 3T3-L1 cells were treated as described in Example 2, and cell extracts were used in an ERK 1/2 kinase assay, using MBP (myelin basic protein) as a substrate. The assay used is described in Boulton et al. (1991) Cell Reg. 2: 357.\nas §2, §1"}, "p38": {"test_system": "p38", "test": "Western blot of phosphorylated p38 in 3T3-L1 cells", "format": "cell-based, Mouse", "conditions": "3 days 17 μM PGJ2, then 15 minutes 10 ng/ml TNF-α", "method": "as §1"}, "ERK1/2 [5]": {"test_system": "ERK1/2", "test": "Western blot of phosphorylated ERK1/2 in 3T3-L1 cells", "format": "cell-based, Mouse", "conditions": "3 days 17 μM PGJ2, then 15 minutes 10 ng/ml TNF-α", "method": "as §1"}, "3T3-L1 adipocytes [6]": {"test_system": "3T3-L1 adipocytes", "test": "Catecholamine (isoproterenol)-induced glycerol release from 3T3-L1 adipocytes", "format": "cell-based, Mouse", "conditions": "BRL or PGJ2"}, "[7]": {"conditions": "Ehrman et al. 1997; cited from earlier work"}, "perilipin A": {"test_system": "perilipin A", "test": "Western blot of perilipin A protein in 3T3-L1 adipocytes", "format": "cell-based, Mouse", "conditions": "TNF-α 10 ng/ml, 24 hours", "method": "3T3-L1 adipocytes were treated with TNF-α at 10 ng/ml, TNF-α plus BRL (10 μM), or BRL alone for 24 hours, following which cell lysates were collected and analyzed by Western blotting using antibodies against HSL and perilipin A proteins. Perilipin antibodies were generated by immunization of rabbits with a peptide identical to amino acids 9-23 of the rat perilipin protein (Greenberg et al. (1993) PNAS 90:12035). Antibodies to HSL were prepared by injecting a peptide based upon the rat HSL sequence (GeneBank) (KDLSFKGNSPEPSDSPEMC; SEQ ID NO: 1) into rabbits. Antibodies were subsequently affinity purified and used for Western blotting at a dilution of 1:1500. Western blotting was performed as follows: adipocytes are briefly rinsed with 1 ml of phosphate saline buffer (PBS, pH 7.4). Proteins were extracted by adding 200 μl of lysis buffer containing 50 mM Hepes, pH 7.4, 100 mM Nacl, 2 mM EDTA, 5% SDS, 0.1 mM Na3V) 4 , 50 mM NaF, 1 mM benzamidine, 100 μM AEBSF, adn 10 μg/ml aprotinin. Equivalent amounts of protein were separated by 10% SDS-PAGE, electrophoretically transferred to nitrocellulose membranes, incubated with primary antibody and subsequentely with donkey anti-rabbit IgG conducaged with horseradish peroxidase. Proteins were detected with enhanced chemiluminescence (ECL) system (Amersham). […]"}, "HSL": {"test_system": "HSL", "test": "Western blot of HSL protein in 3T3-L1 adipocytes", "format": "cell-based, Mouse", "conditions": "TNF-α 10 ng/ml, 24 hours", "method": "3T3-L1 adipocytes were treated with TNF-α at 10 ng/ml, TNF-α plus BRL (10 μM), or BRL alone for 24 hours, following which cell lysates were collected and analyzed by Western blotting using antibodies against HSL and perilipin A proteins. Perilipin antibodies were generated by immunization of rabbits with a peptide identical to amino acids 9-23 of the rat perilipin protein (Greenberg et al. (1993) PNAS 90:12035). Antibodies to HSL were prepared by injecting a peptide based upon the rat HSL sequence (GeneBank) (KDLSFKGNSPEPSDSPEMC; SEQ ID NO: 1) into rabbits. Antibodies were subsequently affinity purified and used for Western blotting at a dilution of 1:1500. Western blotting was performed as follows: adipocytes are briefly rinsed with 1 ml of phosphate saline buffer (PBS, pH 7.4). Proteins were extracted by adding 200 μl of lysis buffer containing 50 mM Hepes, pH 7.4, 100 mM Nacl, 2 mM EDTA, 5% SDS, 0.1 mM Na3V) 4 , 50 mM NaF, 1 mM benzamidine, 100 μM AEBSF, adn 10 μg/ml aprotinin. Equivalent amounts of protein were separated by 10% SDS-PAGE, electrophoretically transferred to nitrocellulose membranes, incubated with primary antibody and subsequentely with donkey anti-rabbit IgG conducaged with horseradish peroxidase. Proteins were detected with enhanced chemiluminescence (ECL) system (Amersham)."}}, "note": "“Also recorded” adds a separate entry of the source.", "data": [{"compound": "CCCCC/C=C/C=C1/C(=O)C=C[C@@H]1C/C=C\\CCCC(=O)O", "note": "[PGJ2, 15-deoxy-^12,14-PGJ2]", "values": [{"measurement": "phosphorylation of JNK-1", "setting": "JNK-1 [1]", "value": "significantly reduces"}, {"measurement": "inhibition of TNF-α induced lipolysis", "setting": "3T3-L1 adipocytes [2]; 10 μM BRL or 17 μM PGJ2, TNF-α 2 or 10 ng/ml, 24 hours", "value": "significantly inhibited; also recorded: inhibit"}, {"measurement": "blocked share of the increase in glycerol release due to TNF-α", "setting": "3T3-L1 adipocytes [2]; 5 days, BRL 10 μM or PGJ2 15 μM, TNF-α 2 or 10 ng/ml, last 24 hours", "value": "about 100%"}, {"measurement": "glycerol accumulation versus control (untreated) cells", "setting": "3T3-L1 adipocytes [2]; BRL or PGJ2 alone, 5 days", "value": "not different from levels measured in control"}, {"measurement": "further reduction of lipolysis when added to NaSal", "setting": "3T3-L1 adipocytes [2]; added to cells incubated with 20 mM NaSal, TNF-α, 24 hours", "value": "did not further reduce lipolysis"}, {"measurement": "TNF-α induced increase in JNK-1 kinase activity", "setting": "JNK-1 [3]", "value": "to a lesser extent"}, {"measurement": "TNF-α induced increase in ERK1/2 kinase activity", "setting": "ERK1/2 [4]; 3 days 17 μM PGJ2, then 15 minutes 10 ng/ml TNF-α", "value": "significantly inhibits"}, {"measurement": "phosphorylation of p38", "setting": "p38", "value": "significantly reduces"}, {"measurement": "phosphorylation of ERK1/2", "setting": "ERK1/2 [5]", "value": "significantly reduces"}, {"measurement": "block of isoproterenol-induced glycerol release", "setting": "3T3-L1 adipocytes [6]", "value": "neither BRL nor PGJ2 was able to block"}]}, {"compound": "C[S+]([O-])c1ccc(-c2nc(-c3ccncc3)c(-c3ccc(F)cc3)[nH]2)cc1", "note": "(stereo not drawn) [SB203580]", "values": [{"measurement": "release of glycerol from the adipocytes", "setting": "3T3-L1 adipocytes [2]; SB203580 0-50 μM preincubation, then 10 ng/ml TNF-α 24 hours", "value": "increases the release of glycerol"}, {"measurement": "concentration up to which glycerol release is proportional to the amount added", "setting": "3T3-L1 adipocytes [2]; SB203580, 10 ng/ml TNF-α 24 hours", "value": "≤ 20", "unit": "µM"}]}, {"compound": "Cc1c(C)c2c(c(C)c1O)CCC(C)(COc1ccc(CC3SC(=O)NC3=O)cc1)O2", "note": "(stereo not drawn) [troglitazone, 5-[[4-[(3,4-dihydro-6-hydroxy-2,5,7,8-tetramethyl-2H-1-benzopyran-2-yl)methoxy]phenyl]methyl]-2,4-thiazolidinedione]", "values": [{"measurement": "efficacy in PCOS", "setting": "[7]", "value": "effective"}]}, {"compound": "TNF-α", "values": [{"measurement": "increase in glycerol accumulation versus untreated controls", "setting": "3T3-L1 adipocytes [2]; 2 ng/ml TNF-α", "value": "~10", "unit": "fold"}, {"measurement": "increase in glycerol accumulation versus untreated controls", "setting": "3T3-L1 adipocytes [2]; 10 ng/ml TNF-α", "value": "~13", "unit": "fold"}, {"measurement": "expression of perilipin A protein versus untreated controls", "setting": "perilipin A", "value": "markedly decreased"}, {"measurement": "increase in phosphorylation of the MBP substrate (ERK1/2 activation)", "setting": "ERK1/2 [4]; 10 ng/ml TNF-α, 15 minutes", "value": "seven"}, {"measurement": "HSL protein expression versus untreated controls", "setting": "HSL", "value": "slightly decreased"}]}]}
